The source of these data is patent US20240150338A1, “COMPOUNDS AND USE THEREOF FOR TREATMENT OF NEURODEGENERATIVE, DEGENERATIVE AND METABOLIC DISORDERS” (University of Florida Research Foundation, Incorporated, priority 2021, published 2024).

For series [1], the system named is PK1 neuroblastoma cells exposed to TPrP. The experiment in a line: cells. Particulars: Neuroblastoma cell, 96 h, read-out: TPrP EC50. The series is classed as cell-based.
The nature of series [2]: Microsomal stability assay. In kind it is in vitro ADME. Particulars: 1 mg/ml human hepatic microsomes, 37° C., half-life by LC-MS/MS; yes = stability ≥15 minutes. The method, then:
The metabolic stability of some test compounds was determined in hepatic human and mouse microsomes. The compound was incubated with 1 mg/ml human or mouse hepatic microsomes at 37° C. with continuous shaking. Aliquots were removed at various time points between 5 minutes and 2 hours and acetonitrile was added to quench the reactions and precipitate the proteins. Samples were then centrifuged through 0.45 μm filter plates and half-lives were determined by LC-MS/MS.

Molecules are shown by their SMILES.

Broadly, the EC50 is the concentration giving half of the maximal effect. In the case of `Cc1cc(-c2csc(Nc3ccc(S(N)(=O)=O)cc3)n2)ccn1` [SR-33124, 4-((4-(2-Methylpyridin-4-yl)thiazol-2-yl)amino)benzenesulfonamide], the EC50 in series [1] was found to be 30 nM. The “Stabilty in human microsomes ≥ 15 minutes” value (from here on “Stabilty”) in series [2] was “yes”.

For the molecule `Cc1cc(-c2csc(Nc3ccc(CS(C)(=O)=O)cc3)n2)ccn1` [SR-35786, 4-(2-Methylpyridin-4-yl)-N-(4-((methylsulfonyl)methyl)phenyl)thiazol-2-amine], the concentration for a half-maximal effect (EC50) in series [1] came out at 14 nM. For the same molecule, the “Stabilty” value in series [2] was “yes”.

Take `CS(=O)(=O)c1ccc(Nc2nc(-c3ccc(C(F)(F)F)cc3)cs2)cc1` [SR-35733, N-(4-(Methylsulfonyl)phenyl)-4-(4-(trifluoromethyl)phenyl)thiazol-2-amine]: the EC50 in series [1] was more than 500 nM. In addition, the “Stabilty” value in series [2] is recorded as “yes”.

Consider `CS(=O)(=O)c1ccc(Nc2nc(-c3ccncc3)cs2)cc1` [SR-33788, N-(4-(methylsulfonyl)phenyl)-4-(pyridin-4-yl)thiazol-2-amine], for which the EC50 in series [1] is 80 nM. The “Stabilty” value in series [2] is reported as “yes”.

On to `O=S(=O)(O)c1ccc(Nc2nc(-c3ccnc(Cl)c3)cs2)cc1` [SR-33128, 4-((4-(2-Chloropyridin-4-yl)thiazol-2-yl)amino)benzenesulfonic acid], for which the half-maximal effective concentration (EC50) in series [1] is more than 500 nM. In series [2], the “Stabilty” value is “yes”.

For `NS(=O)(=O)c1ccc(Nc2nc(-c3ccnc(Cl)c3)c(CO)s2)cc1` [SR-33525, 4-((4-(2-Chloropyridin-4-yl)-5-(hydroxymethyl)thiazol-2-yl)amino)benzenesulfonamide], the EC50 in series [1] came out at 65 nM. Further, in series [2], the “Stabilty” value is listed as “yes”.

With `Cc1cc(-c2nc(Nc3ccc(S(=O)(=O)O)cc3)sc2CO)cc(C)n1` [SR-33801, 4-((4-(2,6-Dimethylpyridin-4-yl)-5-(hydroxymethyl)thiazol-2-yl)amino)benzenesulfonic acid], the EC50 in series [1] was 40 nM. For the same molecule, in series [2], the “Stabilty” value was “yes”.

As to `CNS(=O)(=O)c1ccc(-c2csc(Nc3ccc(S(C)(=O)=O)cc3)n2)cc1` [SR-34964, N-methyl-4-(2-((4-(methylsulfonyl)phenyl)amino)thiazol-4-yl)benzenesulfonamide], in series [1], the half-maximal effective concentration (EC50) is 105 nM. Besides, the “Stabilty” value in series [2] is reported as “yes”.

Turning to `Cc1cc(-c2csc(Nc3ccc(S(=O)(=O)O)cc3)n2)cc(C)n1` [SR-33784, 4-((4-(2,6-Dimethylpyridin-4-yl)thiazol-2-yl)amino)benzenesulfonic acid], the 50% effective concentration (EC50) in series [1] is 25 nM. Further, in series [2], the “Stabilty” value is “yes”.

As to `Cc1cc(-c2csc(Nc3ccc(S(C)(=O)=O)c(F)c3)n2)cc(C)n1` [SR-34974, 4-(2,6-Dimethylpyridin-4-yl)-N-(3-fluoro-4-(methylsulfonyl)phenyl)thiazol-2-amine], the EC50 in series [1] is 100 nM. Moreover, the “Stabilty” value in series [2] is “yes”.

On to `Cc1cc(-c2nc(Nc3ccc(S(=O)(=O)O)cc3)sc2CO)ccn1` [SR-33526, 4-((5-(Hydroxymethyl)-4-(2-methylpyridin-4-yl)thiazol-2-yl)amino)benzenesulfonic acid], for which the concentration giving a half-maximal response (EC50) in series [1] stood at 150 nM. The “Stabilty” value in series [2] is “yes”.

As to `CC(C)NS(=O)(=O)c1ccc(-c2nc(Nc3ccc(S(N)(=O)=O)cc3)sc2CO)cc1` [SR-34776, 4-(5-(Hydroxymethyl)-2-((4-sulfamoylphenyl)amino)thiazol-4-yl)-N-isopropylbenzenesulfonamide], the concentration for a half-maximal effect (EC50) in series [1] turned out to be 100 nM. Also, in series [2], the “Stabilty” value is “yes”.

Consider `Cc1cc(-c2csc(Nc3ccc(S(C)(=O)=O)c(Cl)c3)n2)ccn1` [SR-33127, N-(3-chloro-4-(methylsulfonyl)phenyl)-4-(2-methylpyridin-4-yl)thiazol-2-amine], for which the concentration for a half-maximal effect (EC50) in series [1] came out at 25 nM. Moreover, the “Stabilty” value in series [2] is listed as “yes”.

As to `CC(C)NS(=O)(=O)c1ccc(-c2csc(Nc3ccc(S(N)(=O)=O)cc3)n2)cc1` [SR-34770, N-isopropyl-4-(2-((4-sulfamoylphenyl)amino)thiazol-4-yl)benzenesulfonamide], the concentration for a half-maximal effect (EC50) in series [1] was found to be 300 nM. In series [2], the “Stabilty” value is recorded as “yes”.

Turning to `CNS(=O)(=O)c1ccc(-c2csc(Nc3ccc(C(F)(F)F)cc3)n2)cc1` [SR-35726, N-methyl-4-(2-((4-(trifluoromethyl)phenyl)amino)thiazol-4-yl)benzenesulfonamide], the EC50 in series [1] was 480 nM. Besides, the “Stabilty” value in series [2] is “yes”.

Regarding `NS(=O)(=O)c1ccc(Nc2nc(-c3ccnc(Cl)c3)cs2)cc1` [SR-33125, 4-((4-(2-Chloropyridin-4-yl)thiazol-2-yl)amino)benzenesulfonamide], the concentration giving a half-maximal response (EC50) in series [1] was 35 nM. In addition, in series [2], the “Stabilty” value is on record as “yes”.

As for `Cc1cc(-c2csc(Nc3ccc(S(=O)(=O)O)cc3)n2)ccn1` [SR-33126, 4-((4-(2-Methylpyridin-4-yl)thiazol-2-Yl)amino)benzenesulfonic acid], in series [1], the EC50 is 25 nM. Further, in series [2], the “Stabilty” value is “yes”.

For the molecule `COc1cc(-c2csc(Nc3ccc(S(N)(=O)=O)cc3)n2)cc(OC)n1` [SR-33790, 4-((4-(2,6-Dimethoxypyridin-4-yl)thiazol-2-yl)amino)benzenesulfonamide], the half-maximal effective concentration (EC50) in series [1] turned out to be 35 nM. In series [2], the “Stabilty” value is recorded as “yes”.

With `Cc1cc(-c2csc(Nc3ccc(S(C)(=O)=O)cc3)n2)cc(C)n1` [SR-33786, 4-(2,6-Dimethylpyridin-4-yl)-N-(4-(methylsulfonyl)phenyl)thiazol-2-amine], in series [1], the concentration giving a half-maximal response (EC50) was found to be 20 nM. Also, the “Stabilty” value in series [2] is reported as “yes”.

For `CS(=O)(=O)c1ccc(Nc2nc(-c3ccnc(Cl)c3)cs2)cc1Cl` [SR-33129, N-(3-chloro-4-(methylsulfonyl)phenyl)-4-(2-chloropyridin-4-yl)thiazol-2-amine], the 50% effective concentration (EC50) in series [1] was 65 nM. The “Stabilty” value in series [2] is on record as “yes”.

Consider `CS(=O)(=O)c1ccc(Nc2nc(-c3ccnc(Cl)c3)cs2)cc1C(F)(F)F` [SR-34982, 4-(2-Chloropyridin-4-yl)-N-(4-(methylsulfonyl)-3-(trifluoromethyl)phenyl)thiazol-2-amine], for which, in series [1], the 50% effective concentration (EC50) came out at 120 nM. Further, in series [2], the “Stabilty” value is “yes”.
